{"source": "ChEMBL document CHEMBL5543114", "about": "“Chimeric NOD2 Mincle Agonists as Vaccine Adjuvants” (J Med Chem, 2024)", "key": {"HEK293 [1]": {"tested_on": "HEK293", "experiment": "Induction of IL-8 production in HEK293 cells expressing mouse NOD2 at 5 to 50 uM incubated for 20 hrs by ELISA", "assay_type": "functional, cell-based", "conditions": "Homo sapiens, dose 5-50 µM"}, "BMDM [2]": {"tested_on": "BMDM", "experiment": "Induction of IL-23 production in C57BL/6 mouse BMDM cells at 2.5 ug/ml incubated for 48 hrs in presence of 1 nmol [(2R,3S,4S,5R,6R)-3,4,5-trihydroxy-6-[(3R,4S,5S,6R)-3,4,5-trihydroxy-6-[(4-octadecoxybenzoyl)oxymethyl]tetrahydropyran-2-yl]oxy-tetrahydropyran-2-yl]methyl 4-octadecoxybenzoate by ELISA", "assay_type": "functional, cell-based", "conditions": "dose 2.5 µg/ml"}, "BMDM [3]": {"tested_on": "BMDM", "experiment": "Induction of IL-1beta production in C57BL/6 mouse BMDM cells at 1 nmol per well incubated for 48 hrs in presence of 2 ug/ml (4R)-4-[[(2S)-2-[[(2R)-2-[(3R,4R,5S,6R)-3-acetamido-2,5-dihydroxy-6-(hydroxymethyl)tetrahydropyran-4-yl]oxypropanoyl]amino]propanoyl]amino]-5-amino-5-oxo-pentanoic acid by ELISA", "assay_type": "functional, cell-based"}, "BMDM [4]": {"tested_on": "BMDM", "experiment": "Induction of IL-23 production in C57BL/6 mouse BMDM cells at 1 nmol per well incubated for 48 hrs in presence of 2ug/ml (4R)-4-[[(2S)-2-[[(2R)-2-[(3R,4R,5S,6R)-3-acetamido-2,5-dihydroxy-6-(hydroxymethyl)tetrahydropyran-4-yl]oxypropanoyl]amino]propanoyl]amino]-5-amino-5-oxo-pentanoic acid by ELISA", "assay_type": "functional, cell-based"}, "BMDM [5]": {"tested_on": "BMDM", "experiment": "Induction of IL-23 production in C57BL/6 mouse BMDM cells at 1 nmol per well incubated for 48 hrs in presence of 2.5 ug/ml (2R,6S)-2-amino-6-[[(4R)-4-amino-4-carboxy-butanoyl]amino]heptanedioic acid by ELISA", "assay_type": "functional, cell-based"}, "BMDM [6]": {"tested_on": "BMDM", "experiment": "Induction of IL-23 production in C57BL/6 mouse BMDM cells at 1 nmol per well incubated for 48 hrs in presence of 2 ug/ml murabutide by ELISA", "assay_type": "functional, cell-based"}, "2B4": {"tested_on": "2B4", "experiment": "Induction of NFAT-GFP signal in mouse 2B4 reporter cells expressing mMincle + FcRgamma at 0.1 to 1 nmol incubated for 18 hrs by flow cytometry analysis", "assay_type": "functional, cell-based", "conditions": "dose 0.1-1 nmol"}, "HEK293 [7]": {"tested_on": "HEK293", "experiment": "Induction of IL-8 production in HEK293 cells expressing mouse NOD2 at 5 to 50 uM incubated for 20 hrs in presence of 10 to 100 uM (4R)-4-[[(2S)-2-[[(2R)-2-[(3R,4R,5S,6R)-3-acetamido-2,5-dihydroxy-6-(hydroxymethyl)tetrahydropyran-4-yl]oxypropanoyl]amino]propanoyl]amino]-5-amino-5-oxo-pentanoic acid by ELISA", "assay_type": "functional, cell-based", "conditions": "Homo sapiens, dose 5-50 µM"}, "Splenocyte [8]": {"tested_on": "Splenocyte", "experiment": "Improvement in memory response in ovalbumin immunized C57BL/6 mouse splenocytes assessed as increase in IFNgamma level incubated for 72 hrs in presence of (4R)-4-[[(2S)-2-[[(2R)-2-[(3R,4R,5S,6R)-3-acetamido-2,5-dihydroxy-6-(hydroxymethyl)tetrahydropyran-4-yl]oxypropanoyl]amino]propanoyl]amino]-5-amino-5-oxo-pentanoic acid by ELISA", "assay_type": "functional, cell-based"}, "BMDM [9]": {"tested_on": "BMDM", "experiment": "Induction of IL-1beta production in C57BL/6 mouse BMDM cells at 1 nmol per well incubated for 24 hrs by ELISA", "assay_type": "functional, cell-based"}, "BMDM [10]": {"tested_on": "BMDM", "experiment": "Induction of MIP-2 production in C57BL/6 mouse BMDM cells at 1 nmol per well incubated for 24 hrs by ELISA", "assay_type": "functional, cell-based"}, "BMDM [11]": {"tested_on": "BMDM", "experiment": "Induction of IL-6 production in C57BL/6 mouse BMDM cells at 1 nmol per well incubated for 24 hrs by ELISA", "assay_type": "functional, cell-based"}, "[12]": {"experiment": "Drug hydrolysis in water at pH 7 assessed as half life by HPLC-UV analysis", "assay_type": "physicochemical", "conditions": "buffer"}, "[13]": {"experiment": "Drug hydrolysis in water at pH 4.4 assessed as half life by HPLC-UV analysis", "assay_type": "physicochemical"}, "[14]": {"experiment": "Drug hydrolysis in water at pH 1 assessed as half life by HPLC-UV analysis", "assay_type": "physicochemical"}, "BMDM [15]": {"tested_on": "BMDM", "experiment": "Induction of IL-1beta production in C57BL/6 mouse BMDM at 1 nmol incubated for 48 hrs by ELISA", "assay_type": "functional, cell-based"}, "BMDM [16]": {"tested_on": "BMDM", "experiment": "Induction of IL-6 production in C57BL/6 mouse BMDM at 1 nmol incubated for 48 hrs by ELISA", "assay_type": "functional, cell-based"}, "BMDM [17]": {"tested_on": "BMDM", "experiment": "Induction of IL-23 production in C57BL/6 mouse BMDM at 1 nmol incubated for 48 hrs by ELISA", "assay_type": "functional, cell-based"}, "Splenocyte [18]": {"tested_on": "Splenocyte", "experiment": "Improvement in memory response in ovalbumin immunized C57BL/6 mouse splenocytes assessed as increase in IFNgamma level incubated for 72 hrs by ELISA", "assay_type": "functional, cell-based"}, "Mus musculus": {"species_on_record": "Mus musculus", "experiment": "Adjuvanticity in ovalbumin immunized C57BL/6 mouse assessed as increase in anti-OVA IgG titers at 40 nmol boosted with OVA at 1 week and measured after week 4, 5, 6 by ELISA", "assay_type": "functional, organism-based", "conditions": "time 6.0 weeks"}, "[19]": {"experiment": "Toxicity in ovalbumin immunized C57BL/6 mouse assessed as body weight loss at 40 nmol boosted with OVA at 1 week and measured after week 3, 4, 5 and 6", "conditions": "in vivo, 1008 h, time 6 weeks"}}, "note": "Activity calls are given as the source filed them. The rule behind the calls is not given here."}
{"smiles": "CCCCCCCCCCCCCCCCCCCCCC(=O)OC[C@@H]1O[C@H](O[C@H]2O[C@H](COC(=O)CCCCCCCCCCCCCCCCCCCCC)[C@@H](O)[C@H](O)[C@H]2O)[C@@H](O)[C@H](O)[C@H]1O", "values": [{"measurement": "Activity", "setting": "HEK293 [1]", "value": "inactive"}]}
{"smiles": "N[C@H](CCC[C@H](NC(=O)CC[C@@H](N)C(=O)O)C(=O)O)C(=O)O", "values": [{"measurement": "Activity", "setting": "BMDM [2]", "value": "inactive"}]}
{"smiles": "CCCCCCCCCCCCCCCCCCOc1ccc(C(=O)OC[C@H]2O[C@H](O[C@H]3O[C@H](COC(=O)c4ccc(OCCCCCCCCCCCCCCCCCC)cc4)[C@@H](O)[C@H](O)[C@H]3O)[C@H](O)[C@@H](O)[C@@H]2O)cc1", "values": [{"measurement": "Activity", "setting": "BMDM [3]", "value": "Active"}, {"measurement": "Activity", "setting": "BMDM [4]", "value": "Active"}, {"measurement": "Activity", "setting": "BMDM [5]", "value": "inactive"}, {"measurement": "Activity", "setting": "BMDM [6]", "value": "inactive"}, {"measurement": "Activity", "setting": "2B4", "value": "Active"}, {"measurement": "Activity", "setting": "HEK293 [1]", "value": "inactive"}, {"measurement": "Activity", "setting": "HEK293 [7]", "value": "Active"}, {"measurement": "Activity", "setting": "Splenocyte [8]", "value": "Active"}]}
{"smiles": "CCCCCCCCCCCCCCCCCCOc1ccc(C(=O)OC[C@H]2O[C@H](O[C@H]3O[C@H](COC(=O)c4ccc(OCCCCCCCCCCCCCCCCCC)cc4OCc4cn(CCCN(OC)[C@@H]5O[C@H](CO)[C@@H](O)[C@H](O)[C@H]5NC(C)=O)nn4)[C@@H](O)[C@H](O)[C@H]3O)[C@H](O)[C@@H](O)[C@@H]2O)c(OCc2cn(CCCN(OC)[C@@H]3O[C@H](CO)[C@@H](O)[C@H](O)[C@H]3NC(C)=O)nn2)c1", "values": [{"measurement": "Activity", "setting": "BMDM [9]", "value": "inactive"}, {"measurement": "Activity", "setting": "BMDM [10]", "value": "inactive"}, {"measurement": "Activity", "setting": "BMDM [11]", "value": "inactive"}]}
{"smiles": "CON(CCCn1cc(CCCCCCCCCCCCCCCCCOc2ccc(C(=O)OC[C@H]3OC(O[C@H]4O[C@H](COC(=O)c5ccc(OCCCCCCCCCCCCCCCCCc6cn(CCCN(OC)[C@H]7O[C@@H](CO)[C@H](O)[C@@H](O[C@H](C)C(=O)N[C@@H](C)C(=O)N[C@H](CCC(=O)O)C(N)=O)[C@@H]7NC(C)=O)nn6)cc5)[C@@H](O)[C@H](O)[C@H]4O)[C@H](O)[C@@H](O)[C@@H]3O)cc2)nn1)[C@@H]1O[C@@H](CO)[C@H](O)[C@@H](O[C@H](C)C(=O)N[C@@H](C)C(=O)N[C@H](CCC(=O)O)C(N)=O)[C@@H]1NC(C)=O", "note": "(some centres undefined)", "values": [{"measurement": "Activity", "setting": "2B4", "value": "Active"}, {"measurement": "Activity", "setting": "HEK293 [1]", "value": "Active"}, {"measurement": "t1/2", "setting": "[12]", "value": 1, "unit": "yr"}, {"measurement": "half-life", "setting": "[13]", "value": 60, "unit": "h"}, {"measurement": "half-life", "setting": "[14]", "value": 1, "unit": "h"}, {"measurement": "Activity", "setting": "BMDM [15]", "value": "Active"}, {"measurement": "Activity", "setting": "BMDM [16]", "value": "Active"}, {"measurement": "Activity", "setting": "BMDM [17]", "value": "Active"}, {"measurement": "Activity", "setting": "Splenocyte [18]", "value": "Active"}, {"measurement": "Activity", "setting": "Mus musculus", "value": "Active"}, {"measurement": "Activity", "setting": "[19]", "value": "Non-Toxic"}]}
